Assays:
[1] = tested on: antibiotic-resistant strains of Staphylococcus aureus; experiment: Disc diffusion assay, antibacterial activity; type: cell-based; conditions: clinically isolated antibiotic-resistant S. aureus
Experimental: (§1) Disc diffusion assay was performed to evaluate the antibacterial potential of compounds (8, 9, 10 and 12) against antibiotic-resistant strains of Salmonella Typhi and Staphylococcus aureus. […] Heterocyclic compounds are well-known for their antibacterial potential. A series of Benzoxazepine derivatives have shown promising antibacterial activities against Staphylococcus sciuri (zone of inhibition as 8–21 mm) and E. coli (zone of inhibition as 8–14 mm). Isoxazolyl benzo [1, 4]diazepine-5-ones have shown antibacterial against both G + ve (B. subtilis, B. sphaericus, S.aureus) and G-ve bacteria (P. aeruginosa, K. aerogenes, C. violaceum).
(§2) Antibacterial activity was assessed against clinically isolated, antibiotic-resistant strains of Salmonella typhi and Staphylococcus aureus using Disk diffusion assay, as previously described. Anticholinesterase activity was also performed, as described earlier for indoles.

[2] = Solubility behaviour in the anticholinesterase reaction mixture; type: physicochemical; conditions: anticholinesterase assay reaction mixture
Description: (§3) Azine derivatives, benzoxazepines and benzodiazepines show various biological activities, including antibacterial, antifungal, and anticholinesterase activities. This makes benzo-diazine an excellent candidate for exploration of its potential for cholinesterase inhibition and antimicrobial activities.

acetylcholinesterase = acetylcholinesterase (Homo sapiens, UniProt P22303); experiment: biochemical; conditions: apparent value; due to solubility issues the IC50 values can be far less; read-out: IC50, acetylcholinesterase inhibition
Chain of acetylcholinesterase (P22303 32-614): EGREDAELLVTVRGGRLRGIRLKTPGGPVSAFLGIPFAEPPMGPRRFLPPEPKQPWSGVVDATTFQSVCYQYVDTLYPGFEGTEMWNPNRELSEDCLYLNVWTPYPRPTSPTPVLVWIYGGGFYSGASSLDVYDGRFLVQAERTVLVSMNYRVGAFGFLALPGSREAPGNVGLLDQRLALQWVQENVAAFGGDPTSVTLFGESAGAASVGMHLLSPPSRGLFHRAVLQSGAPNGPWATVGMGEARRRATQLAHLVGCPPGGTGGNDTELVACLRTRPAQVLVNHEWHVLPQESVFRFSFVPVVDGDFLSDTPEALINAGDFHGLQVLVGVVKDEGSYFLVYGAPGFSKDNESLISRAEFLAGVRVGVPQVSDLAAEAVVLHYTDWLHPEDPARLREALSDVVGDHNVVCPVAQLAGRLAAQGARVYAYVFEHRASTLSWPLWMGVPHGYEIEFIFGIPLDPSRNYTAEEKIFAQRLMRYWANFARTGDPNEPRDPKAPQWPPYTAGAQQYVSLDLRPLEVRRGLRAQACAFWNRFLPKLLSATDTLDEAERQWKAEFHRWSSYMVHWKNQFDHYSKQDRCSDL
Experimental: as §3, §2

[3] = tested on: antibiotic-resistant strains of Salmonella Typhi; experiment: Disc diffusion assay, antibacterial activity; type: cell-based; conditions: clinically isolated antibiotic-resistant S. Typhi
Experimental: as §1, §2

With COc1cc(OC)c2c(-c3ccccc3)c(-c3ccccc3)[nH]c2c1C(N)=O [Compound 10, 4,6-Dimethoxy-2,3-Diphenyl-1H-Indole-7-Carboxamide] the “zone of inhibition (ZOI)” value [1] was about 17 mm.
In the case of COC(=O)C(C)Oc1nc(-c2ccccc2)nc2c(C(=O)c3ccccc3)c(OC)cc(OC)c12 (stereo not drawn) [Compound 12, 8-Benzoyl-5,7-Dimethoxy-4-(1‴-Methyoxycarbonylethoxy)-2-Phenyl-1,3-Benzodiazine], the “precipitation in the reaction mixture” value [2] is reported as “precipitated even at lower concentrations”, the IC50 (acetylcholinesterase) is reported as 6.11 µM and the “zone of inhibition (ZOI)” value [3] is reported as ~ 13 mm. For the same compound, the “zone of inhibition (ZOI)” value [1] was about 20 mm.
For COc1cc(OC)c2c(-c3ccccc3)c(-c3ccccc3)[nH]c2c1C(=O)C(Cl)(Cl)Cl [Compound 8, 7-Trichloro-acetyl-4,6-Dimethoxy-2,3-Diphenyl-1H-Indole], the IC50 (acetylcholinesterase) was 7.31 µM and the “zone of inhibition (ZOI)” value [1] was ~ 18 mm.
With COc1cc(OC)c2c(-c3ccccc3)c(-c3ccccc3)[nH]c2c1C(=O)O [Compound 9, 4,6-Dimethoxy-2,3-Diphenylindole-7-Carboxylic Acid] the “precipitation in the reaction mixture” value [2] was “precipitated even at lower concentrations” and the “zone of inhibition (ZOI)” value [1] was about 21 mm.

From PMC10343724, “Evaluation of Antimicrobial, Anticholinesterase Potential of Indole Derivatives and Unexpectedly Synthesized Novel Benzodiazine: Characterization, DFT and Hirshfeld Charge Analysis” (Molecules, 2023)
